Among the test systems are OVCAR-5 ovarian; SR leukemia; HL-60(TB) leukemia; A498 renal; HCT-15 colon; OVCAR-8 ovarian; A549 NSCLC; HCT-116 colon; HCC-2998 colon; EKVX NSCLC; SN12C renal; U251 CNS; UACC-257 melanoma; PC-3 prostate; COLO 205 colon; NCI-H226 lung.
What all share (assay): NCI-60 cell line screen, 48 h

Among the data in PubChem BioAssay (NCI) are TGI values, retold here.

SMILES strings stand for the structures.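 Five compound concentrations were applied to cells in 96-well plates for 48 hours; endpoints were derived by simple linear interpolation of the resulting dose-response curve. TGI: concentration producing complete growth inhibition.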

On to `O=C(/C=C/c1ccco1)CC(=O)/C=C/c1ccco1`, for which the TGI in the assay with OVCAR-5 ovarian was 23.3 µM; in the assay with SR leukemia, 17.4 µM; in the assay with HL-60(TB) leukemia it was 11.7 µM; with A498 renal, 36.7 µM; in the assay with HCT-15 colon it was 20.2 µM; in the assay with OVCAR-8 ovarian it was greater than 31.6 µM. Also, the TGI was 24.5 µM in the assay with A549 NSCLC; 17.4 µM in the assay on HCT-116 colon; 17.3 µM in the assay with HCC-2998 colon; greater than 31.6 µM in the assay on EKVX NSCLC; 17.5 µM in the assay with SN12C renal; 19.7 µM in the assay on U251 CNS. In the assay with UACC-257 melanoma, this compound displayed a TGI greater than 100 µM.
With `O=c1[nH]nc(Cc2ccc(Cl)cc2)n1/N=C\c1ccc(/C=N/n2c(Cc3ccc(Cl)cc3)n[nH]c2=O)cc1`, the TGI in the assay with PC-3 prostate, in the assay on OVCAR-5 ovarian, in the assay on COLO 205 colon, in the assay with NCI-H226 lung, in the assay on HL-60(TB) leukemia and in the assay with A498 renal was greater than 100 µM in each case. The TGI in the assay with HCT-15 colon, with OVCAR-8 ovarian, in the assay on A549 NSCLC, with HCT-116 colon, in the assay with EKVX NSCLC and with SN12C renal was greater than 100 µM each time. The figures for the TGI with U251 CNS and in the assay with UACC-257 melanoma were 97.9 µM and greater than 100 µM, respectively.
Consider `CC(=O)OCC1OC(n2c(N)c(C#N)c(-c3ccc(C)cc3)c(C#N)c2=S)C(OC(C)=O)C(OC(C)=O)C1OC(C)=O` (stereo not given), for which the TGI in the assay on PC-3 prostate is greater than 100 µM; with OVCAR-5 ovarian, greater than 100 µM; in the assay on COLO 205 colon it was 29.4 µM; in the assay with NCI-H226 lung it was 20.1 µM; with HL-60(TB) leukemia, greater than 100 µM; in the assay with A498 renal it was greater than 100 µM. The TGI in the assay with HCT-15 colon was greater than 100 µM; in the assay on OVCAR-8 ovarian it was 28.5 µM; in the assay on A549 NSCLC, 29.5 µM; with HCT-116 colon it was greater than 100 µM; in the assay on HCC-2998 colon, 34 µM; in the assay with EKVX NSCLC it was 34.7 µM. Besides, the TGI in the assay on SN12C renal amounted to 41 µM; with U251 CNS, 30.6 µM; with UACC-257 melanoma, 39.7 µM.
Consider `CN(C)c1ccc(/C=C(\NC(=O)c2ccccc2)C(=O)NC(CCC(=O)O)C(=O)O)cc1` (stereo not given), for which the TGI in the assay on PC-3 prostate, in the assay on OVCAR-5 ovarian, in the assay on COLO 205 colon, with NCI-H226 lung, in the assay with HL-60(TB) leukemia and with A498 renal was greater than 100 µM each time. Also, the TGI in the assay with HCT-15 colon, with OVCAR-8 ovarian, in the assay with A549 NSCLC, in the assay with HCT-116 colon, with HCC-2998 colon and in the assay with EKVX NSCLC was greater than 100 µM each time. Further, the TGI in the assay with SN12C renal, with U251 CNS and in the assay with UACC-257 melanoma was greater than 100 µM each time.
On to `COc1cc([C@@H]2c3[nH]c4ccccc4c3C(Nc3ccc([N+](=O)[O-])cc3)[C@H]3COC(=O)N23)cc(OC)c1O` (stereo not given in full), for which the TGI stood at 7.88 µM in the assay on PC-3 prostate; 2.06 µM in the assay on OVCAR-5 ovarian; 2.86 µM in the assay on COLO 205 colon; 0.532 µM with NCI-H226 lung; 0.048 µM in the assay on HL-60(TB) leukemia; 0.653 µM in the assay with A498 renal. Further, the TGI in the assay with HCT-15 colon was 29.2 µM; with OVCAR-8 ovarian, 0.86 µM; in the assay with A549 NSCLC it was 0.95 µM; in the assay on HCT-116 colon, 1.42 µM; in the assay with HCC-2998 colon, 20.3 µM; in the assay with EKVX NSCLC, 17 µM. In addition, the TGI with SN12C renal was 3.76 µM; in the assay on U251 CNS it was 1.4 µM; with UACC-257 melanoma, 11.6 µM.
In the case of `N#CCCN(CCC#N)c1ccc(/C=C2\N=C(c3ccccc3)N(c3ccccn3)C2=O)cc1`, the TGI in the assay on PC-3 prostate, in the assay on OVCAR-5 ovarian, in the assay with COLO 205 colon, with NCI-H226 lung, with HL-60(TB) leukemia and in the assay on A498 renal was greater than 100 µM each time. For the same compound, the TGI in the assay with HCT-15 colon, in the assay with OVCAR-8 ovarian, in the assay with A549 NSCLC, with HCT-116 colon, with EKVX NSCLC and with SN12C renal was greater than 100 µM in each case. For the same compound, the TGI in the assay with U251 CNS and with UACC-257 melanoma was greater than 100 µM in each case.
Take `CC(=O)N[C@H]1CCCC[C@@H]1OC(C)=O`: the TGI in the assay on PC-3 prostate, with OVCAR-5 ovarian, in the assay on COLO 205 colon, in the assay with NCI-H226 lung, in the assay with HL-60(TB) leukemia and in the assay on A498 renal was greater than 100 µM each time. The TGI in the assay with HCT-15 colon, with OVCAR-8 ovarian, with HCT-116 colon, in the assay with HCC-2998 colon, in the assay with EKVX NSCLC and with SN12C renal was greater than 100 µM each time. Moreover, the TGI in the assay with U251 CNS and in the assay on UACC-257 melanoma was greater than 100 µM each time.
For the compound `O=C(OCC1OC(c2nn[nH]n2)C(OC(=O)c2ccccc2)C1OC(=O)c1ccccc1)c1ccccc1` (stereo not given), the TGI in the assay on PC-3 prostate, with OVCAR-5 ovarian, in the assay on COLO 205 colon, in the assay with NCI-H226 lung, in the assay with HL-60(TB) leukemia and in the assay with A498 renal was greater than 100 µM each time. Also, the TGI in the assay with HCT-15 colon, in the assay on OVCAR-8 ovarian, with A549 NSCLC, in the assay with HCT-116 colon, with HCC-2998 colon and in the assay on EKVX NSCLC was greater than 100 µM throughout. Moreover, the TGI in the assay with SN12C renal, with U251 CNS and in the assay on UACC-257 melanoma was greater than 100 µM in each case.
In the case of `c1cncc(-c2ncc3cccnc3n2)c1`, the TGI with PC-3 prostate, in the assay on OVCAR-5 ovarian, with COLO 205 colon, in the assay with NCI-H226 lung, in the assay with HL-60(TB) leukemia and in the assay on A498 renal was greater than 100 µM in each case. Besides, the TGI in the assay with HCT-15 colon, in the assay with OVCAR-8 ovarian, in the assay with A549 NSCLC, with HCT-116 colon, in the assay on HCC-2998 colon and with EKVX NSCLC was greater than 100 µM each time. In addition, the TGI in the assay with SN12C renal, in the assay with U251 CNS and in the assay with UACC-257 melanoma was greater than 100 µM each time.
